Results reported in patent US20250034167A1, “HETEROCYCLIC COMPOUNDS AND METHODS OF USE” (AMGEN INC., priority 2021, published 2025).

Each molecule was assayed against His-tagged KRAS G12D protein (Homo sapiens, UniProt P01116, G12D) (assay: biochemical).
Sequence of His-tagged KRAS G12D protein (P01116 1-188 isoform P01116-2 G12D): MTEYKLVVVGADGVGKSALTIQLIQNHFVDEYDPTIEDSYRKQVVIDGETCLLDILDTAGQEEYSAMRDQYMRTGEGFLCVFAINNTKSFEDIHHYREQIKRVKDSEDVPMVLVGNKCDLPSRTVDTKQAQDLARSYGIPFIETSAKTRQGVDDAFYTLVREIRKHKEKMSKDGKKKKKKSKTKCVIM
Description: The plate was incubated for 30 minutes at room temperature. Biotinylated KRPep-2d substrate (Amgen) was diluted to nM in Assay Buffer and 2 μL was added to all wells and incubated for 1 hour at room temperature. Detection Reagent (0.4 nM LANCE Eu-W1024 Anti-6×His (Perkin Elmer AD0401), 5 nM streptavidin-d2 (Cisbio 610SADLA)) was prepared in Assay Buffer, then 4 µL was added to the plate and incubated for 1 hour at room temperature.
Molecule `CCc1c(F)ccc2cc(O)cc(-c3ncc4c(N5C[C@@H](C(N)=O)CC[C@H]5C)nc(OC[C@@]56CCCN5C[C@H](F)C6)nc4c3F)c12` (relative stereo) [Example 64, rel-(3S,6R)-1-(7-(8-Ethyl-7-fluoro-3-hydroxynaphthalen-1-yl)-8-fluoro-2-(((2R,7aS)-2-fluorotetrahydro-1H-pyrrolizin-7a(5H)-yl)methoxy)pyrido[4,3-d]pyrimidin-4-yl)-6-methylpiperidine-3-carboxamide] has an IC50 of 6 nM.
With `CCc1c(F)ccc2cc(O)cc(-c3ncc4c(N5C[C@H]6COC[C@H]6C5)nc(OC[C@@]56CCCN5C[C@H](F)C6)nc4c3F)c12` [Example 122, 5-Ethyl-6-fluoro-4-(8-fluoro-2-(((2R,7aS)-2-fluorotetrahydro-1H-pyrrolizin-7a(5H)-yl)methoxy)-4-((3aR,6aS)-tetrahydro-1H-furo[3,4-c]pyrrol-5(3H)-yl)pyrido[4,3-d]pyrimidin-7-yl)naphthalen-2-ol] the IC50 was 33 nM.
With `CCc1c(F)ccc2cc(O)cc(-c3ncc4c(N5CCCC(S(=O)(=O)C(F)F)C5)nc(OC[C@@]56CCCN5C[C@H](F)C6)nc4c3F)c12` (stereo partly drawn) [Example 161, 4-(4-(3-((Difluoromethyl)sulfonyl)piperidin-1-yl)-8-fluoro-2-(((2R,7aS)-2-fluorotetrahydro-1H-pyrrolizin-7a(5H)-yl)methoxy)pyrido[4,3-d]pyrimidin-7-yl)-5-ethyl-6-fluoronaphthalen-2-ol] the IC50 was 76 nM.
Work on `CCc1c(F)ccc2cc(O)cc(-c3ncc4c(N5CCCC[C@@H](N)C5)nc(OC[C@@]56CCCN5C[C@H](F)C6)nc4c3F)c12` [Example 131, 4-(4-((R)-3-Aminoazepan-1-yl)-8-fluoro-2-(((2R,7aS)-2-fluorotetrahydro-1H-pyrrolizin-7a(5H)-yl)methoxy)pyrido[4,3-d]pyrimidin-7-yl)-5-ethyl-6-fluoronaphthalen-2-ol] yielded an IC50 of 4 nM.
`CCc1c(F)ccc2cc(O)cc(-c3ncc4c(N5CC6CCOC6C5)nc(OC[C@@]56CCCN5C[C@H](F)C6)nc4c3F)c12` (stereo partly drawn) [Example 37, 5-Ethyl-6-fluoro-4-(8-fluoro-2-(((2R,7aS)-2-fluorotetrahydro-1H-pyrrolizin-7a(5H)-yl)methoxy)-4-(hexahydro-5H-furo[2,3-c]pyrrol-5-yl)pyrido[4,3-d]pyrimidin-7-yl)naphthalen-2-ol] gave an IC50 of 42 nM.
Work on `CCc1c(F)ccc2cc(O)cc(-c3ncc4c(N5CC6CC(O)C5C6)nc(OC[C@@]56CCCN5C[C@H](F)C6)nc4c3F)c12` (stereo partly drawn) [Example 51, 2-(7-(8-Ethyl-7-fluoro-3-hydroxynaphthalen-1-yl)-8-fluoro-2-(((2R,7aS)-2-fluorotetrahydro-1H-pyrrolizin-7a(5H)-yl)methoxy)pyrido[4,3-d]pyrimidin-4-yl)-2-azabicyclo[2.2.1]heptan-6-ol] yielded an IC50 of 25 nM.
Molecule `CCc1c(F)ccc2cc(O)cc(-c3ncc4c(N5CC[C@H](C)[C@@H](O)C5)nc(OC[C@@]56CCCN5C[C@H](F)C6)nc4c3F)c12` [Example 35, (3R,4S)-1-(7-(8-Ethyl-7-fluoro-3-hydroxynaphthalen-1-yl)-8-fluoro-2-(((2R,7aS)-2-fluorotetrahydro-1H-pyrrolizin-7a(5H)-yl)methoxy)pyrido[4,3-d]pyrimidin-4-yl)-4-methyl-piperidin-3-ol] has an IC50 of 25 nM.
Molecule `C#Cc1c(F)ccc2cccc(-c3ncc4c(N5CCC[C@@](C)(O)C5)nc(OC[C@@]56CCCN5C[C@H](F)C6)nc4c3F)c12` [Example 50, (R)-1-(7-(8-Ethynyl-7-fluoronaphthalen-1-yl)-8-fluoro-2-(((2R,7aS)-2-fluorotetrahydro-1H-pyrrolizin-7a(5H)-yl)methoxy)pyrido[4,3-d]pyrimidin-4-yl)-3-methylpiperidin-3-ol] has an IC50 of 8 nM.
`CCc1c(F)ccc2cc(O)cc(-c3ncc4c(N5CCCC(NS(C)(=O)=O)C5)nc(OC[C@@]56CCCN5C[C@H](F)C6)nc4c3F)c12` (stereo partly drawn) [Example 110, N-(1-(7-(8-Ethyl-7-fluoro-3-hydroxynaphthalen-1-yl)-8-fluoro-2-(((2R,7aS)-2-fluorotetrahydro-1H-pyrrolizin-7a(5H)-yl)methoxy)pyrido[4,3-d]pyrimidin-4-yl)piperidin-3-yl)methanesulfonamide] was tested, and the IC50 was 6 nM.
For `CCc1c(F)ccc2cc(O)cc(-c3ncc4c(N5CC6CC(O)C(C6)C5)nc(OC[C@@]56CCCN5C[C@H](F)C6)nc4c3F)c12` (single isomer, unassigned) [Example 25], the IC50 was 11 nM.
For `CCc1c(F)ccc2cc(O)cc(-c3ncc4c(N5CCCC(C)(O)CC5)nc(OC[C@@]56CCCN5C[C@H](F)C6)nc4c3F)c12` (stereo partly drawn) [Example 142, 1-(7-(8-Ethyl-7-fluoro-3-hydroxynaphthalen-1-yl)-8-fluoro-2-(((2R,7aS)-2-fluorotetrahydro-1H-pyrrolizin-7a(5H)-yl)methoxy)pyrido[4,3-d]pyrimidin-4-yl)-4-methylazepan-4-ol], the IC50 was 14 nM.
Molecule `CCc1c(F)ccc2cc(O)cc(-c3ncc4c(N5CCC6OCCC6C5)nc(OC[C@@]56CCCN5C[C@H](F)C6)nc4c3F)c12` (relative stereo) [Example 62, 5-Ethyl-6-fluoro-4-(8-fluoro-2-(((2R,7aS)-2-fluorotetrahydro-1H-pyrrolizin-7a(5H)-yl)methoxy)-4-rel-((3aR,7aS)-hexahydrofuro[3,2-c]pyridin-5(4H)-yl)pyrido[4,3-d]pyrimidin-7-yl)naphthalen-2-ol] has an IC50 of 40 nM.
In the case of `CCc1c(F)ccc2cc(O)cc(-c3ncc4c(N5C[C@H]6OCC[C@H]65)nc(OC[C@@]56CCCN5C[C@H](F)C6)nc4c3F)c12` (relative stereo) [Example 21, rel-4-(4-((1R,5R)-2-Oxa-6-azabicyclo[3.2.0]heptan-6-yl)-8-fluoro-2-(((2R,7aS)-2-fluorotetrahydro-1H-pyrrolizin-7a(5H)-yl)methoxy)pyrido[4,3-d]pyrimidin-7-yl)-5-ethyl-6-fluoronaphthalen-2-ol], the IC50 is reported as 32 nM.
Molecule `CCc1c(F)ccc2cc(O)cc(-c3ncc4c(N5CCCC(c6c[nH]cn6)C5)nc(OC[C@@]56CCCN5C[C@H](F)C6)nc4c3F)c12` (stereo partly drawn) [Example 106, 4-(4-(3-(1H-Imidazol-4-yl)piperidin-1-yl)-8-fluoro-2-(((2R,7aS)-2-fluorotetrahydro-1H-pyrrolizin-7a(5H)-yl)methoxy)pyrido[4,3-d]pyrimidin-7-yl)-5-ethyl-6-fluoronaphthalen-2-ol] has an IC50 of 10 nM.
Molecule `CCc1c(F)ccc2cc(O)cc(-c3ncc4c(N5CCCC[C@H](O)C5)nc(OC[C@@]56CCCN5C[C@H](F)C6)nc4c3F)c12` [Example 130, (S)-1-(7-(8-Ethyl-7-fluoro-3-hydroxynaphthalen-1-yl)-8-fluoro-2-(((2R,7aS)-2-fluorotetrahydro-1H-pyrrolizin-7a(5H)-yl)methoxy)pyrido[4,3-d]pyrimidin-4-yl)azepan-3-ol] has an IC50 of 4 nM.
Work on `CCc1c(F)ccc2cc(O)cc(-c3ncc4c(N5CC[C@H]6CNC(=O)[C@H]6C5)nc(OC[C@@]56CCCN5C[C@H](F)C6)nc4c3F)c12` (relative stereo) [Example 103, rel-(3aR,7aR)-5-(7-(8-Ethyl-7-fluoro-3-hydroxynaphthalen-1-yl)-8-fluoro-2-(((2R,7aS)-2-fluorotetrahydro-1H-pyrrolizin-7a(5H)-yl)methoxy)pyrido[4,3-d]pyrimidin-4-yl)octahydro-3H-pyrrolo[3,4-c]pyridin-3-one] yielded an IC50 of 4 nM.
